How the values were obtained:
Assay in all cases: fitness (endpoint OD595 vs no drug) (fraction); higher = more growth
S. aureus DSM 20231 = system: S. aureus DSM 20231
Summary of the method: (§1)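 Fitness was measured as bacterial growth in 384-well plates inoculated at OD595 0.01 (30 µl, or 55 µl for S. pneumoniae). Media were TSB, LB Lennox or CY, at 37 °C. OD595 was read every 30 min for 14 h and background-subtracted against the first reading. Fitness is OD595 at the transition into stationary phase divided by the robust mean of no-drug control wells, capped at 1.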

S. aureus Newman = system: S. aureus Newman
Summary of the method: as §1

S. pneumoniae D39V = system: S. pneumoniae D39V
Summary of the method: as §1
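Note: OD595 on entry to stationary phase over no-drug wells; at most 1.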

CO[C@@]12[C@H](COC(N)=O)C3=C(C(=O)C(C)=C(N)C3=O)N1C[C@@H]1N[C@@H]12 [Mitomycin C] + COc1c(N2C[C@@H]3CCCN[C@@H]3C2)c(F)cc2c(=O)c(C(=O)O)cn(C3CC3)c12 [Moxifloxacin]
Settings	fitness
S. aureus DSM 20231, first compound 0.0156 µg/mL, partner 0.0075 µg/mL	0.677
S. aureus DSM 20231, first compound 0.0156 µg/mL, partner 0.015 µg/mL	0.675
S. aureus DSM 20231, first compound 0.0156 µg/mL, partner 0.03 µg/mL	0.543
S. aureus DSM 20231, first compound 0.0312 µg/mL, partner 0.0075 µg/mL	0.703
S. aureus DSM 20231, first compound 0.0312 µg/mL, partner 0.015 µg/mL	0.624
S. aureus DSM 20231, first compound 0.0312 µg/mL, partner 0.03 µg/mL	0.506
S. aureus DSM 20231, first compound 0.0625 µg/mL, partner 0.0075 µg/mL	0.557
S. aureus DSM 20231, first compound 0.0625 µg/mL, partner 0.015 µg/mL	0.504
S. aureus DSM 20231, first compound 0.0625 µg/mL, partner 0.03 µg/mL	0.371
S. aureus Newman, first compound 0.0156 µg/mL, partner 0.0075 µg/mL	0.63
S. aureus Newman, first compound 0.0312 µg/mL, partner 0.0075 µg/mL	0.59
S. aureus Newman, first compound 0.0312 µg/mL, partner 0.03 µg/mL	0.0632
S. aureus Newman, first compound 0.0625 µg/mL, partner 0.0075 µg/mL	0.32
S. aureus Newman, first compound 0.0625 µg/mL, partner 0.03 µg/mL	0.0334
S. pneumoniae D39V, first compound 0.001075 µg/mL, partner 0.0037 µg/mL	0.878
S. pneumoniae D39V, first compound 0.001075 µg/mL, partner 0.0075 µg/mL	0.902
S. pneumoniae D39V, first compound 0.001075 µg/mL, partner 0.015 µg/mL	0.869
S. pneumoniae D39V, first compound 0.002 µg/mL, partner 0.005 µg/mL	0.895
S. pneumoniae D39V, first compound 0.002 µg/mL, partner 0.01 µg/mL	0.902
S. pneumoniae D39V, first compound 0.002 µg/mL, partner 0.02 µg/mL	0.769
S. pneumoniae D39V, first compound 0.00215 µg/mL, partner 0.0037 µg/mL	0.846
S. pneumoniae D39V, first compound 0.00215 µg/mL, partner 0.0075 µg/mL	0.805
S. pneumoniae D39V, first compound 0.00215 µg/mL, partner 0.015 µg/mL	0.813
S. pneumoniae D39V, first compound 0.004 µg/mL, partner 0.005 µg/mL	0.838
S. pneumoniae D39V, first compound 0.004 µg/mL, partner 0.01 µg/mL	0.807
S. pneumoniae D39V, first compound 0.004 µg/mL, partner 0.02 µg/mL	0.727
S. pneumoniae D39V, first compound 0.0043 µg/mL, partner 0.0037 µg/mL	0.665
S. pneumoniae D39V, first compound 0.0043 µg/mL, partner 0.0075 µg/mL	0.691
S. pneumoniae D39V, first compound 0.0043 µg/mL, partner 0.015 µg/mL	0.666
S. pneumoniae D39V, first compound 0.008 µg/mL, partner 0.005 µg/mL	0.673
S. pneumoniae D39V, first compound 0.008 µg/mL, partner 0.01 µg/mL	0.72
S. pneumoniae D39V, first compound 0.008 µg/mL, partner 0.02 µg/mL	0.637

fitness, S. aureus DSM 20231, one replicate
Settings	first compound 0.0156 µg/mL	first compound 0.0312 µg/mL	first compound 0.0625 µg/mL
partner 0.06 µg/mL	0.674	0.603	0.512
partner 0.12 µg/mL	0.413	0.302	0.198
